{
  "source": "paper PMC12605013",
  "about": "“SAG1.3-derived Frizzled-targeting small-molecule compounds” (The Journal of Biological Chemistry, 2025)",
  "key": {"[1]": {"molecular_target": "T1, firefly luciferase (Fluc) (Photinus pyralis, UniProt P08659)", "T1 construct": "expressed in transfected cells; host or cells: HEK293 cells", "T1 sequence (P08659 whole entry)": "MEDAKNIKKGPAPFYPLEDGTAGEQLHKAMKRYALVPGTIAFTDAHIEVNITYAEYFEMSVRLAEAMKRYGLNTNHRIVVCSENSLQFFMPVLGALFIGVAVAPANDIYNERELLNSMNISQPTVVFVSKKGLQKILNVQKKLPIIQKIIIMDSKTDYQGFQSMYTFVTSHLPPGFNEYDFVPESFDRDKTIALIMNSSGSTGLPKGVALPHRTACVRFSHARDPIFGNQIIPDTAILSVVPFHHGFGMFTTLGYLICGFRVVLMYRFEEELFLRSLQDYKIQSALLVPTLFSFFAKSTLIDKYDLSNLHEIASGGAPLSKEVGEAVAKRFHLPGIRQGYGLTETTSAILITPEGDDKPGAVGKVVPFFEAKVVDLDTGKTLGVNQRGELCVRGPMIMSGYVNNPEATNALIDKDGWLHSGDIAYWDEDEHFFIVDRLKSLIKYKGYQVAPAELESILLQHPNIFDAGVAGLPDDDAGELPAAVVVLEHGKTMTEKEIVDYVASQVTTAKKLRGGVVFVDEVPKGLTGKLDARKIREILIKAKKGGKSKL", "assay": "Fluc counter assay (CMV-driven recombinant Fluc in HEK293 cells)", "format": "cell-based", "conditions": "counter assay for readout interference", "description": "(§1) Figure S3. […] Experiments were performed in HEK293 cells."}, "[2]": {"tested_on": "PANC-1 cells", "assay": "Cell viability (AlamarBlue) of PANC-1 cells", "format": "cell-based, human", "conditions": "one-week treatment; 10 µM", "description": "(§2) HPAF-II cells and PANC-1 cells were seeded in DMEM at a density of 1000 cells per well into a black opaque 96-well plate (Greiner BioOne). After 1 day, the medium was exchanged with complete DMEM containing either compound 11, the porcupine inhibitor C59, or DMSO (vehicle control). After 3 days of incubation (37 °C, 5% CO2), the medium was exchanged once again with DMEM containing the same concentration of ligands or DMSO (vehicle control). Three days after (equal to 7 days after seeding), the medium was removed and 90 μl of fresh DMEM (without any ligands) were added. Last, 10 μl of AlamarBlue HS reagent (Thermo Fisher Scientific; catalog no.: A50100) were added to each well, and the cells were incubated for 4 h at 37 °C inside the incubator (5% CO2). After the incubation step, fluorescence was read using a TECAN Spark multimode microplate reader (excitation: 535 ± 25 nm, emission: 595 ± 35 nm).\n(§3) For each cell viability experiment, the fluorescence measured in ligand-treated wells was normalized to the average fluorescence from wells treated with vehicle control (DMSO)."}, "[3]": {"molecular_target": "T2, muscarinic acetylcholine M1 receptor (Homo sapiens, UniProt P11229)", "T2 construct": "HA (N); expressed in transfected cells; host or cells: HEK293A cells", "T2 sequence (P11229 2-460)": "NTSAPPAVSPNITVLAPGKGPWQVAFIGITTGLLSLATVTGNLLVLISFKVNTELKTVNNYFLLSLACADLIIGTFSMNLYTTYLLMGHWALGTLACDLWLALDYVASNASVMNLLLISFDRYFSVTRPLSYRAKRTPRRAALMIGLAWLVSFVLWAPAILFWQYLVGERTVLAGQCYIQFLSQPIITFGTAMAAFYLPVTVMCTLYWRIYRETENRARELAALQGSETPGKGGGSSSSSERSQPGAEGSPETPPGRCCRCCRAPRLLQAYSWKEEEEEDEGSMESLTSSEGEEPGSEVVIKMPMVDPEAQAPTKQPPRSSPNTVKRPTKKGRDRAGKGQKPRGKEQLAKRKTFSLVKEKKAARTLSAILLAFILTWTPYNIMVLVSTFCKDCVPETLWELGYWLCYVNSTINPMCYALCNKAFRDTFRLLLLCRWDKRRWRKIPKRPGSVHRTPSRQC", "assay": "BRET-based Venus-mGsq recruitment assay at M1R-Nluc", "format": "cell-based", "description": "The transfected cells were seeded at a density of 40,000 cells per well into a white opaque 96-well plate. […] Following a 10 min incubation period in the dark, the measurement was started on a TECAN Spark multimode microplate reader, prewarmed to 37 °C. After the three baseline measurements, the ligands diluted in HBSS were added (10 μl) and the measurement continued for a further 15 min. Nluc bioluminescence was detected between 460 and 500 nm. The emission of Venus was detected between 520 and 560 nm.\nas §1"}, "[4]": {"tested_on": "HPAF-II cells", "assay": "Cell viability (AlamarBlue) of HPAF-II cells", "format": "cell-based, human", "conditions": "one-week treatment; 10 µM", "description": "as §2, §3"}, "[5]": {"tested_on": "LGR5 gene expression in primary human hepatocyte (PHH) spheroids", "assay": "WNT-3A-induced LGR5 gene expression in primary human hepatocyte spheroids", "format": "cell-based", "conditions": "10 μM compound, 48 h, coaddition with WNT-3A", "description": "Cryopreserved adult PHHs were purchased from BioIVT and cultured as 3D spheroids as previously described ([35]). Briefly, PHHs were seeded in 96-well ultra-low attachment plates (Corning) at a density of 1500 cells/well in William’s E medium (Gibco) supplemented with insulin, transferrin, and selenium (Life Technologies), 100 nM dexamethasone (Sigma), and 10% fetal bovine serum (Cytiva). PHHs were treated from the start of the culture with vehicle control (dimethyl sulfoxide [DMSO]), recombinant WNT-3A, and 10 μM compound 11 for 48 h, as indicated. […]\nRNA from 24 hepatocyte spheroids per condition was isolated using Qiazol lysis reagent (QIAGEN). For expression profiling of target genes by quantitative PCR, complementary DNA synthesis was carried out using SuperScript III reverse transcriptase (Invitrogen), and expression was evaluated using Taqman probes (Table S6) according to the supplier’s instructions in a 7500 Fast Real-Time PCR system (Applied Biosystems). Gene expression was quantified using the ΔΔCt method (normalized to the average of the vehicle control from all three experiments).\nFor the WNT target gene analysis in PHH-derived spheroids, ΔΔCt values were calculated by normalization to the averaged vehicle control from three independent experiments."}},
  "data": [
    {"smiles": "CC(=O)Nc1cccc(C(=O)NC2CCC(N(Cc3cccc(-c4ccncc4)c3)C(=O)c3sc4ccccc4c3Cl)CC2)c1", "note": "(stereo not drawn) [compound 11, N-((1r,4r)-4-(3-Acetamidobenzamido)cyclohexyl)-3-chloro-N-(3-(pyridin-4-yl)benzyl)benzo[b]thiophene-2-carboxamide]", "values": [
      {"measurement": "Interference with Fluc bioluminescence", "setting": "[1]", "result": "interferes with Fluc bioluminescence"},
      {"measurement": "Cell viability of RNF43-wildtype PANC-1 cells", "setting": "[2]", "result": "not significantly affected"},
      {"measurement": "Effect on carbachol-induced M1-mediated mini-Gsq response", "setting": "[3]; 10 µM compound +/- carbachol", "result": "nor affected the concentration-dependent M1-mediated mini-Gsq response"},
      {"measurement": "mini-Gsq recruitment, compound alone (agonist mode)", "setting": "[3]; increasing concentrations of compound", "result": "neither elicited a mini-Gsq recruitment on its own"},
      {"measurement": "Cell viability of RNF43-negative HPAF-II cells", "setting": "[4]", "result": "strongly reduced"},
      {"measurement": "Effect on WNT-3A-induced LGR5 mRNA expression", "setting": "[5]", "result": "returning mRNA expression almost back to vehicle levels"}
    ]}
  ]
}
